Test results: ChEMBL document CHEMBL1201862, “PubChem BioAssay data set” (2004)
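96-well plates; 48 h exposure; 5 concentrations. Endpoints by linear interpolation between flanking doses. Not reached: highest tested concentration assigned. At the GI50, growth is halved.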 The source made the active and inactive calls. Rule as the data show it: active = GI50 up to about 1.1 µM and inactive = higher.

Columns and labels:
Assay in all cases: NCI-60 cell line screen, 48 h
[1] = tested on: IGROV-1
[2] = tested on: MDA-N
[3] = tested on: PC-3
[4] = tested on: NCI-H460
[5] = tested on: SNB-75
[6] = tested on: RPMI-8226
[7] = tested on: OVCAR-5
[8] = tested on: ACHN
[9] = tested on: CCRF-CEM
[10] = tested on: NCI-H522
[11] = tested on: SK-OV-3
[12] = tested on: NCI-H23
[13] = tested on: BT-549
[14] = tested on: M14
[15] = tested on: CAKI-1
[16] = tested on: MDA-MB-435
[17] = tested on: HCC 2998
[18] = tested on: TK-10
[19] = tested on: HL-60
[20] = tested on: SF-295

Structure (SMILES)	GI50 [1]	GI50 [2]	GI50 [3]	GI50 [4]	GI50 [5]	GI50 [6]	GI50 [7]	GI50 [8]	GI50 [9]	GI50 [10]	GI50 [11]	GI50 [12]	GI50 [13]	GI50 [14]	GI50 [15]	GI50 [16]	GI50 [17]	GI50 [18]	GI50 [19]	GI50 [20]
COc1ccc(NC2C(=O)C3(C)CCC2C3(C)C)cc1 (stereo not given)	> 100 µM (inactive)	> 100 µM (inactive)	97.7 µM (inactive)	> 100 µM (inactive)	> 100 µM (inactive)	52.2 µM (inactive)	> 100 µM (inactive)	> 100 µM (inactive)	> 100 µM (inactive)	79.4 µM (inactive)	> 100 µM (inactive)	> 100 µM (inactive)	69 µM (inactive)	> 100 µM (inactive)	> 100 µM (inactive)	> 100 µM (inactive)	> 100 µM (inactive)	> 100 µM (inactive)	29.3 µM (inactive)	> 100 µM (inactive)
O=C(Nn1cc(F)c(=O)[nH]c1=O)C12CC3CC(CC(C3)C1)C2	6.61 µM (inactive)	8.97 µM (inactive)	10.7 µM (inactive)	1.91 µM (inactive)	24.8 µM (inactive)	6.93 µM (inactive)	21.7 µM (inactive)	10.7 µM (inactive)	13 µM (inactive)	16.6 µM (inactive)	18.4 µM (inactive)	7.73 µM (inactive)	17.5 µM (inactive)	15.1 µM (inactive)	4.6 µM (inactive)	10 µM (inactive)	0.646 µM (active)	18.1 µM (inactive)	9.46 µM (inactive)	26.6 µM (inactive)
Nc1ccc2c(=S)c3ccccc3[nH]c2c1	28 µM (inactive)	46.8 µM (inactive)	34 µM (inactive)	27.4 µM (inactive)	18.7 µM (inactive)	13.8 µM (inactive)	> 61.2 µM (inactive)	38.1 µM (inactive)	18.8 µM (inactive)	46.8 µM (inactive)	22.2 µM (inactive)	22.9 µM (inactive)	48.4 µM (inactive)	20.2 µM (inactive)	9.23 µM (inactive)	42.2 µM (inactive)	53.5 µM (inactive)	> 53.6 µM (inactive)	16.2 µM (inactive)	26.4 µM (inactive)
COC(=O)C1(Cc2ccc3c(c2)CCC3)Cc2ccc3c(c2C1=O)CCC3 (stereo not given)	5.46 µM (inactive)	2.01 µM (inactive)	9.02 µM (inactive)	12.7 µM (inactive)	5.42 µM (inactive)	5.4 µM (inactive)	21.1 µM (inactive)	18.6 µM (inactive)	5.21 µM (inactive)	3.92 µM (inactive)	20.4 µM (inactive)	6.62 µM (inactive)	5.68 µM (inactive)	4.26 µM (inactive)	5.45 µM (inactive)	1.73 µM (inactive)	6.95 µM (inactive)	11.8 µM (inactive)	2.86 µM (inactive)	3.72 µM (inactive)
